This note sets out measurements from US11572590B2, “Methods for evaluating tumor cell spheroids using 3D microfluidic cell culture device” (Dana-Farber Cancer Institute, Inc., priority 2017, dated 2023).

Where two headings read alike, the source gives them in different places.

Assay in all cases: SelectScreen Kinase Profiling, single point inhibition and IC50 for off-target kinases
Holding throughout (assay type): biochemical

Assay [1] addresses off-target kinases (Homo sapiens, UniProt Q9UQM7).
The target in assay [2] is off-target kinases (Homo sapiens, UniProt P29597). The note with it: TYK2, ATP Km app, ZLYTE.
Sequence of off-target kinases (Homo sapiens, UniProt P29597) (P29597 whole entry): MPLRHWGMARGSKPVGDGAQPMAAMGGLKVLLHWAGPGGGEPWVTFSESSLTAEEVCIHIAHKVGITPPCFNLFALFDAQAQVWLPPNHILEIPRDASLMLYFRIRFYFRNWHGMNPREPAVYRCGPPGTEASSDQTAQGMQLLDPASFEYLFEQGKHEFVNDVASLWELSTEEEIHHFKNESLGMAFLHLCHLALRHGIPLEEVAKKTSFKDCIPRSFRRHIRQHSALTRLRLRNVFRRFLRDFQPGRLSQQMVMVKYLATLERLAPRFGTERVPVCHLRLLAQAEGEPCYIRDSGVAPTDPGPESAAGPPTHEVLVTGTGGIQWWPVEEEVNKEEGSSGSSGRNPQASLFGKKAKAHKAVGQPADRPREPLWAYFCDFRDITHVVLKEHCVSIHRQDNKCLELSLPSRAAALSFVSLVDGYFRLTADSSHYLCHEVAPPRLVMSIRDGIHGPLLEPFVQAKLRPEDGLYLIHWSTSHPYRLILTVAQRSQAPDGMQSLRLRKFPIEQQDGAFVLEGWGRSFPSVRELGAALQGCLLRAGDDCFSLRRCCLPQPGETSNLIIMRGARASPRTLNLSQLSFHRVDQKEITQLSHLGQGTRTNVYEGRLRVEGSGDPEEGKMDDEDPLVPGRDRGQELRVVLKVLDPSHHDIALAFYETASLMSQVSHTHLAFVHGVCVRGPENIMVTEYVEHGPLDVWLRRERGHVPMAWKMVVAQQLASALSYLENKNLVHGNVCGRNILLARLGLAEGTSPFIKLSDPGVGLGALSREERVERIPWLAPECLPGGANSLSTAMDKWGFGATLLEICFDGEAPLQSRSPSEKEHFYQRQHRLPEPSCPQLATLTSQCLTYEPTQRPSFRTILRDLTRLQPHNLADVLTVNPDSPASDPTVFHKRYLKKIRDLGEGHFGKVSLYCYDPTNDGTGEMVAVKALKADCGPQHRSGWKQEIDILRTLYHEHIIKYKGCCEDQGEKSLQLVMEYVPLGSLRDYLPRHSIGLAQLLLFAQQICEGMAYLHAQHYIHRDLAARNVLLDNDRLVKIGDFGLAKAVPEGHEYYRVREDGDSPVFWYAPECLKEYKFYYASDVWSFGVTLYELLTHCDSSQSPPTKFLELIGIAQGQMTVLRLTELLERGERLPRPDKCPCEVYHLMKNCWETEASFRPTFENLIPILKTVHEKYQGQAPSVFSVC
In assay [3] the target is off-target kinases (Homo sapiens, UniProt P15056). The note with it: BRAF; for inhibition: LanthaScreen Binding.
Sequence of off-target kinases (Homo sapiens, UniProt P15056) (P15056 whole entry): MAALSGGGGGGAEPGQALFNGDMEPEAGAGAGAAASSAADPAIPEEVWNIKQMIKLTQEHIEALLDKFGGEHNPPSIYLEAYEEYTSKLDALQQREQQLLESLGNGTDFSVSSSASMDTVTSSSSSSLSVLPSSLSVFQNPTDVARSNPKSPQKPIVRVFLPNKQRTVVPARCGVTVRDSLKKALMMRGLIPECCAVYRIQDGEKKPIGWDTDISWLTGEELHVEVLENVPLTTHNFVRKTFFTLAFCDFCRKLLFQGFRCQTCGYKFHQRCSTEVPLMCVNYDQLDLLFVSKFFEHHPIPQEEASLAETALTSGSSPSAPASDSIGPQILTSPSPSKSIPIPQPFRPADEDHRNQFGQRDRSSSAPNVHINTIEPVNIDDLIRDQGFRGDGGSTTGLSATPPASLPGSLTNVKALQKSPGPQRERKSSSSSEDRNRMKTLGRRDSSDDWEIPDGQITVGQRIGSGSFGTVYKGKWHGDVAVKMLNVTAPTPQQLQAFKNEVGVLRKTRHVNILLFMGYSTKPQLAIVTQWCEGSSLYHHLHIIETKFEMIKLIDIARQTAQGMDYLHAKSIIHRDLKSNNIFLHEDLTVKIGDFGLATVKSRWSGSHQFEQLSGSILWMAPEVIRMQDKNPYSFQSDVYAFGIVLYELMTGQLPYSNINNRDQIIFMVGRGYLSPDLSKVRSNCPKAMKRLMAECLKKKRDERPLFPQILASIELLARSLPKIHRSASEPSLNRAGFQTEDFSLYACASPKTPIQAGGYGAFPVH
Assay [4] deals with off-target kinases (Homo sapiens, UniProt P54756). Conditions: EPHA5, ZLYTE, ATP Km app.
Sequence of off-target kinases (Homo sapiens, UniProt P54756) (P54756 25-1037): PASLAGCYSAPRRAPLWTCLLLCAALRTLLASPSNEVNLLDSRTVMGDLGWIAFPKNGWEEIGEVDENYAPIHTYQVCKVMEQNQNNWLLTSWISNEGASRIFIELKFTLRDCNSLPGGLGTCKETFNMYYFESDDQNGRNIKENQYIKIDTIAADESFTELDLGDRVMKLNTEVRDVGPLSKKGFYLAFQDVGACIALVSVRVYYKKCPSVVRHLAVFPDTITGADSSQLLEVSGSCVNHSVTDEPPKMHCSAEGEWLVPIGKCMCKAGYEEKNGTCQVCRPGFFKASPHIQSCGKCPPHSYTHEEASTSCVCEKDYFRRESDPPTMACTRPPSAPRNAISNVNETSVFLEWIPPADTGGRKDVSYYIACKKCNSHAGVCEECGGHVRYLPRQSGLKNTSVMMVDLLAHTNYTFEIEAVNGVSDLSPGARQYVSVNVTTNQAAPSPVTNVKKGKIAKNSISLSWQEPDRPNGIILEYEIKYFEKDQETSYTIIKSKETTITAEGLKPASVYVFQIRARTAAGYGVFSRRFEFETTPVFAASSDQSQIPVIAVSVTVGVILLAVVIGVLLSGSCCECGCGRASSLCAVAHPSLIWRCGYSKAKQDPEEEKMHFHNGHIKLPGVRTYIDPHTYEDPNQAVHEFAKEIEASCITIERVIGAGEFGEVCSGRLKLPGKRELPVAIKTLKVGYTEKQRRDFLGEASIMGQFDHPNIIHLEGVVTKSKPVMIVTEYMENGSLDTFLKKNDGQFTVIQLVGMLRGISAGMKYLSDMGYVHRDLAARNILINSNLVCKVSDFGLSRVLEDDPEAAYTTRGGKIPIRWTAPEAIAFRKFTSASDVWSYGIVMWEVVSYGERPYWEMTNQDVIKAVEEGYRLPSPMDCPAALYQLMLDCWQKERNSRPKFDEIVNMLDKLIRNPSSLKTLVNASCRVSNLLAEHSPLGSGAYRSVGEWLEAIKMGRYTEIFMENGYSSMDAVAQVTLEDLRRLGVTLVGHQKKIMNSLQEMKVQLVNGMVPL
Assay [5] concerns the target off-target kinases (Homo sapiens, UniProt O00506). The note with it: STK25 (YSK1), ZLYTE, ATP Km app.
For assay [6], the target named is T1, off-target kinases (Homo sapiens, UniProt Q13873).
T1 sequence (Q13873 27-1038): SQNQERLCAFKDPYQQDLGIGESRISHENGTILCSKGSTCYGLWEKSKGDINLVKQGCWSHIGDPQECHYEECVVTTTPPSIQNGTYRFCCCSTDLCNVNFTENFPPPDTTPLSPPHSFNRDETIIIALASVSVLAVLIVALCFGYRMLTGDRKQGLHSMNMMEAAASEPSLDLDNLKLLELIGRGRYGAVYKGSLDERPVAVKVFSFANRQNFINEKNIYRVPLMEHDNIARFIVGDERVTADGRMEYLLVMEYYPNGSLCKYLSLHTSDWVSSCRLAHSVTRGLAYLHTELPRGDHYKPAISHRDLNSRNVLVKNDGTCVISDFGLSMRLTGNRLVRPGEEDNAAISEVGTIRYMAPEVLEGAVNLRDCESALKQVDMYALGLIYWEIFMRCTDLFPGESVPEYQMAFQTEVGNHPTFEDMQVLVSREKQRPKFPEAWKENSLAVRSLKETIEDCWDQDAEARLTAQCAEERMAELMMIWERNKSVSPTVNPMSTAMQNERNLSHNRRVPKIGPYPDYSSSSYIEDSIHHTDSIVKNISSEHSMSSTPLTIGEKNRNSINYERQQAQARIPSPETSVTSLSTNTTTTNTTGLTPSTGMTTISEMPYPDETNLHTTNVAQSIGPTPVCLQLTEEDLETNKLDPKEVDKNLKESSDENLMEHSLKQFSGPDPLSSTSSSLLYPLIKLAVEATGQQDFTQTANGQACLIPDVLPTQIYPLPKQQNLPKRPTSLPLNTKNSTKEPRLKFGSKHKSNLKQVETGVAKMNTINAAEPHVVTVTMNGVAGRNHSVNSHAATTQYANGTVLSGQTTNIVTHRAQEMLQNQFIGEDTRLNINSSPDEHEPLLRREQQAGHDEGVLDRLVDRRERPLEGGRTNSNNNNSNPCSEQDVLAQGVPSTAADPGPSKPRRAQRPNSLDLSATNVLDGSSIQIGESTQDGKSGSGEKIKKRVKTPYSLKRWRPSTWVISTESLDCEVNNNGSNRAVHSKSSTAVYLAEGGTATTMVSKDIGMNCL
Conditions: BMPR2, LanthaScreen Binding.

Sequence of off-target kinases (Homo sapiens, UniProt O00506) (O00506 whole entry): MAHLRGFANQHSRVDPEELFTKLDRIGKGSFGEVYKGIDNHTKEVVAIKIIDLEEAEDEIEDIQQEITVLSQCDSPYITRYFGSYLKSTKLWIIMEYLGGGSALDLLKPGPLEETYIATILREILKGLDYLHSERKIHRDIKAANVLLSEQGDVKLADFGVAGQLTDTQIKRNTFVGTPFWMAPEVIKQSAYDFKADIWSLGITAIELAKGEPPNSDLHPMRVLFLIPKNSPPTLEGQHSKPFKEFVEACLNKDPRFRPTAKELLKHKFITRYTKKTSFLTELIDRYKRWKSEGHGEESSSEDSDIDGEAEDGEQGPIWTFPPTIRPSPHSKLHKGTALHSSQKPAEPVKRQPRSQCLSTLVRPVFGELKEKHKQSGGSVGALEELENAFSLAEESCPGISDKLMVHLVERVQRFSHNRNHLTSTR
Sequence of off-target kinases (Homo sapiens, UniProt Q9UQM7) (Q9UQM7 whole entry): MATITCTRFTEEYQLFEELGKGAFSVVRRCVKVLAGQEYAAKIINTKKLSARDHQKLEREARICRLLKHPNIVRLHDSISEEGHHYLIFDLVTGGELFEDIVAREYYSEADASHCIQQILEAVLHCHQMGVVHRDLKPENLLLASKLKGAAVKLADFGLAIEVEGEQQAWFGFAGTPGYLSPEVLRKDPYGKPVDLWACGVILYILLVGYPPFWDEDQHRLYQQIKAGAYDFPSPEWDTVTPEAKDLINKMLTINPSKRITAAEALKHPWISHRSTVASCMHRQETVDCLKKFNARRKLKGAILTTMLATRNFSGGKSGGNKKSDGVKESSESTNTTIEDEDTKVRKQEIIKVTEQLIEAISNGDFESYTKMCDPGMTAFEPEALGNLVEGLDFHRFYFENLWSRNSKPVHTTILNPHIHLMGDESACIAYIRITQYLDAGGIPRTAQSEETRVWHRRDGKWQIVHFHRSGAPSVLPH

Take `N#Cc1cc(-c2ncnc(Nc3ccc(N4CCN(C5COC5)CC4)cc3)n2)ccc1OC1CCOCC1` [Compound 1, 5-(4-((4-(4-(oxetan-3-yl)piperazin-1-yl)phenyl)amino)-1,3,5-triazin-2-yl)-2-((tetrahydro-2H-pyran-4-yl)oxy)benzonitrile]: the inhibition on off-target kinases [1] (CAMK2A (CaMKII alpha), ZLYTE, ATP Km app, read-out: % Inhibition 1) worked out at 4%; on off-target kinases [1] (CAMK2A (CaMKII alpha), ZLYTE, ATP Km app, read-out: % Inhibition Avg), 2%; on off-target kinases [1] (read-out: % Inhibition 2), 0%; on off-target kinases [2] (read-out: % Inhibition 1), 65%; at off-target kinases [2] (read-out: % Inhibition 2) it was 64%; on off-target kinases [2] (read-out: % Inhibition Avg) it was 64%. Further, the inhibition at off-target kinases [3] (read-out: % Inhibition 1) amounted to 44%; on off-target kinases [3] (read-out: % Inhibition 2), 47%; on off-target kinases [3] (read-out: % Inhibition Avg) it was 46%; on off-target kinases [4] (read-out: % Inhibition 1), 3%; at off-target kinases [4] (read-out: % Inhibition 2), 4%; at off-target kinases [4] (read-out: % Inhibition Avg), 3%. Also, the inhibition on off-target kinases [5] (read-out: % Inhibition 1) was 0%; at off-target kinases [5] (read-out: % Inhibition 2) it was -4%; on off-target kinases [5] (read-out: % Inhibition Avg) it was -2%; at off-target kinases [6] (read-out: % Inhibition 1) it was 50%; on off-target kinases [6] (read-out: % Inhibition 2), 47%; at off-target kinases [6] (read-out: % Inhibition Avg) it was 49%. Further, at off-target kinases [3] (Cmpd1 1000 μM, ATP 100, ZLYTE), the “% Inhibition 1” value is −18%. On off-target kinases [3] (Cmpd1 1000 μM, ATP 100, ZLYTE), the “% Inhibition 2” value is −10%. For the same compound, the “% Inhibition Avg” value on off-target kinases [3] (Cmpd1 1000 μM, ATP 100, ZLYTE) is given as −14%.
